Results as given in patent publication US20220185793A1, “COMPOUNDS FOR THE TREATMENT OF ONCOVIRUS INDUCED CANCER AND METHODS OF USE THEREOF” (Cellestia Biotech AG, priority 2019, published 2022).

Tests used:
BMI1 (EBV target gene) [1] = experiment: EBV target gene downregulation (qPCR) in LCL070903 cells: BMI1; format: cell-based, human; settings: 48 hours; for potency in downregulating EBV pathway (BMI1) compared with 6-(4-tert-butylphenoxy)pyridin-3-amine (in words): 10 μM, qRT-PCR, FIG. 3; for inhibition at 10 µM: Homo sapiens, mRNA by qPCR, Table 6
Method: EBV positive human B LCL070903 cells were treated with 10 μM of the mentioned compounds for 48 hours. Following treatment, total RNA was extracted and mRNA expression analysed by qRT-PCR.
(§1) One million human EBV positive lymphoma cell lines HG3 and LCL070903 (Rosén et al., 2012) were cultured in RPMI1640 media supplemented with 10% FCS. For RNA expression analysis cells were treated with compounds at 10 μM concentration and for proliferation assay cells were treated at a concentration range of 0.01-100 μM. Following treatment cells were harvested and washed with 1× PBS. Total RNA was extracted as described below.
(§2) Total RNA was extracted from cells using TRIzol® extraction kit (Invitrogen). Briefly, 1×10^6 cells were washed with ice-cold 1× PBS and lysed in 1 ml of TRIzol® solution for 5 minutes at room temperature to dissociate nucleoprotein complexes. Lysed cells were then treated with 200 μl of chloroform and shaked vigorously for 15-30 seconds and incubated at room temperature for 2-3 minutes. The samples were centrifuged at 14000 rpm using Eppendorf table top centrifuge for 10 minutes at 4° C. Following centrifugation, upper aqueous phase was transferred to new eppendorf tubes. To precipitate total RNA 500 μl of […] was added to the separated aqueous phase and incubated at room temperature for 10 minutes. A RNA pellet was obtained by centrifuging the samples at 4° C. for 10 minutes. RNA pellet obtained was washed with 1 ml ice cold 75% ethanol and spun down at 14000 rpm at 4° C. RNA pellet was dried off of excess of ethanol and resuspended in 40 IA DPEC water.
(§3) Total RNA extracted from the cell was used to synthesize cDNA by reverse transcription reaction. Reverse transcription was performed according to one of the two following protocols.
(§4) In first protocol, SuperScript™ RT (Invitrogen) was used for reverse transcription reaction. RNA concentration was measured using NanoDrop®ND-1000 spectrophotometer (Witec AG) and 500 ng of total RNA was mixed with a 10 mM mix of dNTPs and 100 ng of random primers. The reaction mix was incubated at 65° C. for 5 minutes and quickly incubated on ice for 1 minute. Following incubation on ice, 5× first strand buffer and 0.1M DTT were added and mix was incubated for 2 minutes at 25° C. To start the reverse transcription reaction, 200U of SuperScrip™ II RT was added to the reaction mix and incubated at 42° C. for 50 minutes. The reaction was stopped by incubating the reaction mix at 75° C. for 15 minutes.
(§5) In second protocol, reverse transcription was performed using PrimeScript RT Master Mix (Takara). RNA concentration was measured using NanoDrop®ND-1000 spectrophotometer (Witec AG) and 1 μg of total RNA was mixed with 4 μL 5X PrimeScript RT Master Mix in a total reaction volume of 20 μL. The reaction mix was incubated at 37° C. for 15 minutes followed by heat inactivation at 85° C. for 5 seconds.
(§6) QRT-PCR was carried out using 7900 HT Fast Real-Time PCR system (Applied Biosystems) or QuantStudio 3 system (ThermoFisher). Briefly, 12.5 ng of template cDNA was used with a primer concentration of 0.5 μM each and lx SYBR Green dye in a final volume of 10 μL in a 96 well or 384 well plate format.
(§7) Upon infection of human cells, EBV is known to induce cancerous transformation of cells via upregulation of host as well as viral genes (e.g LMP1, EBNA2, BATF1, BMI1 and CD21). To determine the ability of compounds to downregulate EBV driven gene expression, HG-3 and LCL070903 cells were treated with selected compounds and percentage inhibition of EBV target genes was determined by quantitative PCR. As shown in Table 5 and Table 6, compounds down regulate EBV target genes such as BMI1 in HG-3 and LCL070903 cells, respectively (FIGS. 3 and 4).

BMI1 (EBV target gene) [2] = experiment: EBV target gene downregulation (qPCR) in HG-3 cells: BMI1; format: cell-based, human; settings: 48 hours; for potency in downregulating EBV pathway (BMI1) compared with 6-(4-tert-butylphenoxy)pyridin-3-amine (in words): 10 μM, qRT-PCR, FIG. 4; for inhibition at 10 µM: Homo sapiens, mRNA by qPCR, Table 5
Method: EBV positive human B HG-3 cells were treated with 10 μM of the mentioned compounds for 48 hours. Following treatment, total RNA was extracted and mRNA expression analysed by qRT-PCR.
as §1, §2, §3, §4, §5, §6, §7

[3] = test system: EBV positive human lymphoma HG-3 cells; experiment: Alamar blue proliferation assay in HG-3 cells; format: cell-based; settings: 72 hours; for anti-proliferative effect on HG-3 cells (in words): Alamar blue, FIG. 1 and Table 1; for IC50: Homo sapiens, concentration range 0.01-10 μM, Alamar blue assay, read-out: Anti-proliferative IC50 values
Method: (§8) One million human EBV positive lymphoma cell lines HG3 and LCL070903 (Rosén et al., 2012) were cultured in RPMI1640 media supplemented with 10% FCS. […] Following treatment cells were harvested and washed with 1× PBS. Total RNA was extracted as described below.
(§9) Alamarblue® and PrestoBlue proliferation assays were performed to determine the growth kinetics of EBV inhibitor treated cells. Alamar blue® and PrestoBlue consists of a cell permeable substrate resazurin. In metabolically active and proliferating cells, resazurin is converted to resorufin due to an intrinsic reducing power of live cells and produces a red fluorescence. Therefore production of resorufin serves as an indicator of the viability of the cell population.
(§10) Proliferation assays were performed by seeding 5000 cells/well in a 96 well plate. […] Each concentration was tested in 4 replicates. To determine the growth kinetics, 10 μl of Alamar blue® or PrestoBlue (Invitrogen) was added to each well and incubated for 4 hours. Readout was taken using Tecan F500 (Tecan) multiplate reader or Varioskan LUX (ThermoFisher) multiplate reader.
In order to determine anti-cancer activity of compounds in oncoviral driven cells, an EBV infected human Chronic Lymphocytic Leukemia cell line HG-3 was used (Rosen et al., 2012). In brief, HG-3 cells were plated in a 96 well plate and treated with an increasing concentration of compounds.

EBNA2 [4] = experiment: EBV target gene downregulation (qPCR) in LCL070903 cells: EBNA2; format: cell-based; settings: Homo sapiens, mRNA by qPCR, Table 6
Method: as §1, §2, §3, §4, §5, §6, §7

[5] = test system: EBV positive human B HG-3 cells; experiment: PrestoBlue proliferation assay in HG-3 cells; format: cell-based; settings: 72 hours; for anti-proliferative effect on HG-3 cells (in words): PrestoBlue, FIG. 2 and Table 4; for IC50: Homo sapiens, concentration range 0.03-100 μM, PrestoBlue assay, read-out: Anti-proliferative IC50 values (μM) in HG-3 cells
Method: as §8, §9, §10
In brief, HG-3 cells were plated in a 96 well plate and treated with an increasing concentration of compounds.

NOTCH target gene HES1 = NOTCH target gene HES1 downregulation in RPMI 8402 cells; format: cell-based, human; design: Percentage inhibition of NOTCH target gene HES1: concentration or dose not given beside the values; settings: RPMI 8402 cells (NOTCH1 positive, EBV negative)
Method: as §2, §3, §6
(§11) To determine the ability of compounds to downregulate EBV driven gene expression, HG-3 cells were treated with selected compounds and percentage inhibition of EBV target genes was determined by quantitative PCR. […] To further determine the anti-oncoviral specificity of compounds, these compounds were tested for their ability to downregulate a NOTCH target gene HES1 in a NOTCH1 positive (EBV negative) human leukemic cell line RPMI8402.

EBNA2 [6] = experiment: EBV target gene downregulation (qPCR) in HG-3 cells: EBNA2; format: cell-based; settings: Homo sapiens, mRNA by qPCR, Table 5
Method: as §1, §2, §3, §4, §5, §6, §11, §7

Row | SMILES | potency in downregulating EBV pathway (BMI1) compared with 6-(4-tert-butylphenoxy)pyridin-3-amine (in words) (BMI1 (EBV target gene) [1]) | inhibition at 10 µM (BMI1 (EBV target gene) [1]) [%] | potency in downregulating EBV pathway (BMI1) compared with 6-(4-tert-butylphenoxy)pyridin-3-amine (in words) (BMI1 (EBV target gene) [2]) | inhibition at 10 µM (BMI1 (EBV target gene) [2]) [%] | anti-proliferative effect on HG-3 cells (in words) [3] | IC50 [3] [µM] | IC50 [5] [µM] | also measured
1 | Fc1cc(NCc2cccnc2)ccc1Oc1ccc(-c2cccnc2)cc1 [Example 26, 3-Fluoro-4-(4-(pyridin-3-yl)phenoxy)-N-(pyridin-3-ylmethyl)aniline] | enhanced potency | 53 | enhanced potency | 11 | – | – | – | –
2 | CC(C)(C)c1ccc(Oc2ccc(NCc3nn[nH]n3)cn2)cc1 [Example 7, N-((2H-Tetrazol-5-yl)methyl)-6-(4-(tert-butyl)phenoxy)pyridin-3-amine] | – | – | – | – | demonstrate anti-proliferative effect | 7.1 | – | –
3 | CC(C)(C)c1ccc(Oc2ccc(NCc3cccnc3)cc2F)cc1 [Example 18, 4-(4-(tert-Butyl)phenoxy)-3-fluoro-N-(pyridin-3-ylmethyl)aniline] | enhanced potency | 24 | enhanced potency | 10 | – | – | – | –
4 | c1ccc(-c2ccc(Oc3ccc(NCc4cccnc4)cn3)cc2)cc1 [Example 20, 6-([1,1r-Biphenyl]-4-yloxy)-N-(pyridin-3-ylmethyl)pyridin-3-amine] | enhanced potency | 44 | – | 35 | – | – | 0.3 | inhibition at 10 µM (EBNA2 [4]): 27%; anti-proliferative effect on HG-3 cells (in words) [5]: demonstrate anti-proliferative effect
5 | COC(c1ccc(NCc2cccnc2)cc1)c1ccc(-c2ccc(F)cc2)cc1 (stereo not drawn) [Example 31, 4-((4′-Fluoro-[1,1′-biphenyl]-4-yl)(methoxy)methyl)-N-(pyridin-3-ylmethyl)aniline] | enhanced potency | 48 | enhanced potency | 24 | – | – | – | –
6 | CC(C)(C)c1ccc(Oc2ccc(N)cn2)cc1 [6-(4-tert-Butylphenoxy)pyridin-3-amine, reference compound] | – | < 0 | – | < 0 | – | > 10 | > 10 | Percentage inhibition of NOTCH target gene HES1 (NOTCH target gene HES1): 80%; downregulation of NOTCH target gene HES1 (in words) (NOTCH target gene HES1): effectively downregulates HES1
7 | CC(C)(C)c1ccc(Oc2ccc(NCC#N)cn2)cc1 [Example 6, 2-((6-(4-(tert-Butyl)phenoxy)pyridin-3-yl)amino)acetonitrile] | – | – | – | – | demonstrate anti-proliferative effect | 8 | – | –
8 | CC(C)(C)c1ccc(Oc2ccc(NCc3nnc(N)o3)cn2)cc1 [Example 9, 5-(((6-(4-(tert-Butyl)phenoxy)pyridin-3-yl)amino)methyl)-1,3,4-oxadiazol-2-amine] | – | – | – | – | demonstrate anti-proliferative effect | 6.3 | – | –
9 | Fc1cc(NCc2cccnc2)ccc1Oc1ccc(-c2ccccn2)cc1 [Example 25, 3-Fluoro-4-(4-(pyridin-2-yl)phenoxy)-N-(pyridin-3-ylmethyl)aniline] | enhanced potency | 46 | enhanced potency | 19 | – | – | 6.7 | inhibition at 10 µM (EBNA2 [6]): 1%; anti-proliferative effect on HG-3 cells (in words) [5]: demonstrate anti-proliferative effect
10 | Fc1ccc(-c2ccc(Cc3ccc(NCc4cccnc4)cc3)cc2)cc1 [Example 32, 4-((4′-Fluoro-[1,1′-biphenyl]-4-yl)methyl)-N-(pyridin-3-ylmethyl)aniline] | enhanced potency | 45 | enhanced potency | 13 | – | – | – | –
11 | Cc1cc(Oc2ccc(-c3ccccc3)cc2)ncc1NCc1cccnc1 [Example 22, 6-([1,1′-Biphenyl]-4-yloxy)-4-methyl-N-(pyridin-3-ylmethyl)pyridin-3-amine] | enhanced potency | 18 | enhanced potency | 30 | – | – | 1.5 | anti-proliferative effect on HG-3 cells (in words) [5]: demonstrate anti-proliferative effect
12 | CC(C)(C)c1ccc(Oc2ccc(NCc3nnco3)cn2)cc1 [Example 8, N-((1,3,4-Oxadiazol-2-yl)methyl)-6-(4-(tert-butyl)phenoxy)pyridin-3-amine] | – | – | – | – | demonstrate anti-proliferative effect | 7.9 | – | –
13 | Fc1ccc(-c2ccc(Oc3ccc(NCc4cccnc4)cn3)cc2)cc1 [Example 24, 6-((4′-Fluoro-[1,1′-biphenyl]-4-yl)oxy)-N-(pyridin-3-ylmethyl)pyridin-3-amine] | enhanced potency | 61 | enhanced potency | 15 | – | – | – | inhibition at 10 µM (EBNA2 [6]): 7%
